Data on 2 molecules can be found in patent EP3351262A1, “CURAGLUTIDE FOR IN TREATMENT OF PREDIABETES, DIABETES, OBESITY AND METABOLIC DISEASES ASSOCIATED THERETO” (Istanbul Universitesi Rektorlugu, priority 2016, dated 2018).

Read-outs that look alike come from different tables or passages of the source.

Data set [1] relates to INS-1 cells. In kind it is cell-based, rat. Conditions: for cell viability values: 24 hours, INS-1 cells, control 100±3.3%. How it is done:
(§1) INS-1 cell strain from rat origin used in the studies was proliferated by performing routine passages once per week. The cells were grown under 1 atm pressure, in the incubator containing 5% CO2 and 95% air, in powder RPMI 1640 medium containing heat inactivated 10% fetal bovine serum (FBS) and antibiotics (100 unit/ml penicillin G100, 100 µg/ml streptomycin), 1% sodium pyruvate, hepes, sodium bicarbonate and beta-mercaptoethanol at 37 °C. The cells produced in 75 cm^2 sterile culture plate were used for the experiment when they covered 60-80% of the culture plate.
(§2) The cells to be used in the experiments were removed from the surface of culture plate where they stuck, when they cover 60-80% of the culture plate, by using trypsin. In order to prevent the effect of trypsin to cells whose removal was monitored under microscope, the medium with the equal amount as trypsin was added and the cell suspension was collected in the centrifuge tube and centrifuged in 1500 rpm for 5 minutes. The supernatant was removed after centrifuge, the medium was added to the cells remained in the bottom part of the tube and pipetted in order to form single cell suspension. The total amount of cells was calculated by using hemocytometer. 50 000 INS-1 beta cells taken from 100% viable single cell suspension, whose cell amount was calculated, were cultured to each of the culture plates with 96 wells. The cultured cells were incubated at 37 °C for 24 hours in order to provide the sticking to the surface of culture plate and growing. After 24 of incubation, the cells were treated with 0.25 mM, 0.5 mM, 0.75 mM, 1 mM, 1.25 mM, 1.5 mM, 1.75 mM, 2 mM, 2.5 mM, 2.75 mM, 3 mM, 3.25 mM, 3.5 mM, 3.75 mM,4 mM, 4.25 mM, 4.5 mM, 4.75 mM, 5 mM palmitic acid which were the chosen doses for palmitic acid. 10 wells including the control group were used in the experiments and 24-hour experiment groups were formed for each of the concentrations.
(§3) After the removal of the grown cells by trypsin, culturing was performed to 96 wells in a way such that there would be 50 000 cells in 200 µl. The cultured cells were incubated at 37 °C for 24 hours in order to provide growing. After 24 h of incubation, the cells were treated with 1nM, 10nM, 100nM curaglutide which were the chosen doses. 10 wells including the control group were used in the experiments and 24-hour experiment groups have been formed for each of the concentrations.
(§4) MTT ([3-(4, 5-dimethyl tiazol-2-il)-2, 5 diphenyl tetrazolium bromide]) test is a drug sensitivity test based on cell culture principal, it aims to assess the cell growth and/or cell death in an indirect way. This frequently used test differs from the other testing methods, with the advantages that it is fast, sensitive, reproducible and easy to apply. The cracking of the tetrazolium ring of MTT paint by mitochondria in living cells underlies the basis of this method. This reaction is catalyzed by succinate dehydrogenase which is a mitochondrial enzyme. MTT is absorbed to cells actively and it is reduced to formazan which is non-soluble in water and has blue-purple color, by the reaction taking place in mitochondria. The MTT reducing properties of the cells are accepted as the cell viability criteria and they are directly proportionate to the paint density and living cell amount obtained by MTT analyze. While living cells with non-damaged mitochondria function are painted with purple color, cells that are dead or with damaged mitochondria function are not painted. Following bringing the formazan crystals formed by incubated living cells into soluble form, reaction product is read […].
(§5) 50 mg MTT (AppliChem A2231 0001) was weighed, it was dissolved by completing 10 ml with RPMI 1640 medium via vortex, with paying attention that there are no not-dissolved paint particles left, and they were obtained by filtering through 0.22 µm filter. It was used by preparing a fresh one each time. […]

Data set [2] addresses dipeptidyl peptidase IV (DPP-IV) (Homo sapiens, UniProt P27487). Conditions: proteolytic enzyme DPP-IV; cited from earlier work.
The subject of data set [3] is INS-1 cells. Description: Cell viability by MTT test. In kind it is cell-based, rat. Conditions: 2 mM palmitic acid, repetitive experiments. The protocol: as §1
as §2, with “[…],” for “2 mM, 2.5 mM,”
as §3, §4, §5

In a further data set the test system is INS-1 beta cells. Description: ROS measurement with H2DCFDA. Conditions: INS-1 cells, 3rd hour, control 100%. Type of data set: cell-based, rat. How it is done:
When this compound oxidizes by oxidants or free radicals, fluorescent dichlorofluorescein (DCF) will occur.
INS-beta cells were cultured into the plates covered with black with 96 wells in a way such that there would be 50 000 cells in 100 µl. After the growth of the cells, the experiment group (only palmitic acid given) and the groups wherein curaglutide as both protective and therapeutical against palmitic acid was given were removed at the end of the experiment, and each of the wells were washed with PBS. Then 100 µl PBS was added to every well. Then, start of experiment was accepted as 0th hour by adding 10 mM DCFA and the measurements were taken for 3 hours in every 30 minutes, including 0th hour. The absorbance values of each group and the absorbance values in 3rd hour was calculated by assuming the value of the control group as 100%.
ROS measurement was performed by applying H 2 DCFDA occurred as a result of chemical […] of fluorescein which is used as a marker for reactive oxygen derivatives (ROS) to INS-1 beta cells wherein palmitic acid was applied in different doses, and the results are shown in Figure 5.
ROS measurement was performed by applying 10 nM curaglutide as protector and therapeutical to INS-1 beta cells wherein palmitic acid was applied in different doses, and the results are shown in Figure 11.

dipeptidyl peptidase IV (DPP-IV), sequence (P27487 whole entry, species assumed): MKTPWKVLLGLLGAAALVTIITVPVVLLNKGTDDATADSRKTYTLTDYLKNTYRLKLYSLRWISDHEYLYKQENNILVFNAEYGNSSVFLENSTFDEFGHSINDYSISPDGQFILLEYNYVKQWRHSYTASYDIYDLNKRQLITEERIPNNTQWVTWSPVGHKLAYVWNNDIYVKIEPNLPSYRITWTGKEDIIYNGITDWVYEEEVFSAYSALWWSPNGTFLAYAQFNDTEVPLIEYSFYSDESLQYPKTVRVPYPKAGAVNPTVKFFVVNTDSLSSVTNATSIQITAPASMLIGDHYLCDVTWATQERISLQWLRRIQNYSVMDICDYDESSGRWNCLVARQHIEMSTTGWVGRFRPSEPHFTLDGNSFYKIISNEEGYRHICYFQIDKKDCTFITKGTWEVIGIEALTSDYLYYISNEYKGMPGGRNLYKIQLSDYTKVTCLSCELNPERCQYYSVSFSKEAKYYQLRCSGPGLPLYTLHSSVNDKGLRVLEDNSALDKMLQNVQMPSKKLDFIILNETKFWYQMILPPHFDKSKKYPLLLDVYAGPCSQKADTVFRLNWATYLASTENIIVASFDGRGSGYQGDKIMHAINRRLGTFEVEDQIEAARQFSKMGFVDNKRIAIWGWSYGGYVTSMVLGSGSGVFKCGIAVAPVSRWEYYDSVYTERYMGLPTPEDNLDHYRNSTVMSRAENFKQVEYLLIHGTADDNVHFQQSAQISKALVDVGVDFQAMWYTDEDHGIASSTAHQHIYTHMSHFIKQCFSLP

Consider `CC[C@H](C)[C@H](NC(=O)[C@H](Cc1ccccc1)NC(=O)[C@H](CCC(=O)O)NC(=O)[C@H](CCCCN)NC(=O)[C@H](C)NC(=O)[C@H](C)NC(=O)[C@H](CCC(N)=O)NC(=O)CNC(=O)[C@H](CCC(=O)O)NC(=O)[C@H](CC(C)C)NC(=O)[C@H](Cc1ccc(O)cc1)NC(=O)[C@H](CO)NC(=O)[C@H](CO)NC(=O)[C@@H](NC(=O)[C@H](CC(=O)O)NC(=O)[C@H](CO)NC(=O)[C@@H](NC(=O)[C@H](Cc1ccccc1)NC(=O)[C@@H](NC(=O)CNC(=O)[C@H](CCC(=O)O)NC(=O)[C@H](C)NC(=O)[C@H](Cc1c[nH]cn1)NC(C)=O)[C@@H](C)O)[C@@H](C)O)C(C)C)C(=O)N[C@@H](C)C(=O)N[C@@H](Cc1c[nH]c2ccccc12)C(=O)N[C@@H](CC(C)C)C(=O)N[C@H](C(=O)N[C@@H](CCCCN)C(N)=O)C(C)C` [curaglutide], for which the cell viability values is on record as 104.50±3.70% in the data set with INS-1 cells [1] (1 nM curaglutide alone), 121.80±7.30% with INS-1 cells [1] (10 nM curaglutide alone) and 115.20±3.30% in the data set on INS-1 cells [1] (100 nM curaglutide alone). The “% cell viability values” was 78.3±1.6% in the data set with INS-1 cells [1] (10 nM curaglutide as curative agent (24 h after 24 h palmitic acid) for 1.75 mM palmitic acid (autophagic dose)); 60.9±4.3% in the data set with INS-1 cells [1] (10 nM curaglutide as curative agent for 2 mM palmitic acid (apoptotic dose)); 56.5±1.7% with INS-1 cells [1] (10 nM curaglutide as curative agent for 3 mM palmitic acid (necrotic dose)); 46.6±5.8% in the data set on INS-1 cells [1] (10 nM curaglutide as curative agent for 4 mM palmitic acid); 56.4±4.7% with INS-1 cells [1] (10 nM curaglutide as protective against 3 mM palmitic acid (necrotic dose)); 129.9±4.6% in the data set on INS-1 cells [1] (10 nM curaglutide as protector (24 h pre-treatment, then with palmitic acid 24 h) against 1.75 mM palmitic acid (autophagic dose)). The entries for the “% cell viability values” in the data set with INS-1 cells [1] (10 nM curaglutide as protector against 2 mM palmitic acid (apoptotic dose)) and in the data set with INS-1 cells [1] (10 nM curaglutide as protector against 4 mM palmitic acid) were 103.9±0.6% and 52.2±4.6%, respectively. Also, the “destruction by DPP-IV” value in data set [2] is listed as “resistant to destruction by DPP-IV”.
With `CCCCCCCCCCCCCCCC(=O)O` [palmitic acid], the cell death in the data set with INS-1 cells [3] came to 50%. The ROS measurement percentages in the data set with INS-1 beta cells (0.5 mM palmitic acid) amounted to 116±6.01%; in the data set on INS-1 beta cells (1 mM palmitic acid) it was 117±2.5%; in the data set with INS-1 beta cells (1.5 mM palmitic acid) it was 119.7±7.0%; in the data set on INS-1 beta cells (1.75 mM palmitic acid) it was 136.5±5.6%; in the data set on INS-1 beta cells (2 mM palmitic acid), 145.8±3.8%; in the data set on INS-1 beta cells (2.5 mM palmitic acid) it was 172.1±6.1%. Moreover, the figures for the ROS measurement percentages in the data set on INS-1 beta cells (3 mM palmitic acid), with INS-1 beta cells (3.5 mM palmitic acid) and with INS-1 beta cells (4 mM palmitic acid) were 174.8±9.9%, 241.6±5.5% and 262.2±9.9%, respectively.
